In test [1] the target is T1, delta opioid receptor (Rattus norvegicus, UniProt P33533).
T1 construct: the forebrains were homogenized in Tris buffer in a Teflon®-glass homogenizer; from tissue; host or cells: forebrain of male Wistar rats, particulate membrane preparation
Nature of the test: Rat brain delta opioid receptor binding assay. On the procedure:
(§1) Procedure: Male, Wistar rats (150-250 g, VAF, Charles River, Kingston, N.Y.) were killed by CO2, and their brains were removed and placed immediately in ice cold Tris HCl buffer (50 mM, pH 7.4). The forebrains were separated from the remainder of the brain by a coronal transection, beginning dorsally at the colliculi and passing ventrally through the midbrain-pontine junction. After dissection, the forebrains were homogenized in Tris buffer in a Teflon®-glass homogenizer. The homogenate was diluted to a concentration of 1 g of forebrain tissue per 80 mL Tris and centrifuged at 39,000×g for 10 min. The pellet was resuspended in the same volume of Tris buffer containing 5 mM MgCl2 with several brief pulses from a Polytron homogenizer. This particulate preparation was used for the delta opioid binding assays. Following incubation with the delta selective peptide ligand ˜4 nM [^3H]DPDPE or 0.25 nM [^3H]naltrindole at 25° C. for 2.5 h in a 96-well plate with total volume of […], the plate contents were filtered through Wallac filtermat B sheets on a Tomtec 96-well harvester. […] To each sample area 2×50 μL of Betaplate Scint scintillation fluid (LKB) was added and the radioactivity was quantified on a LKB (Wallac) 1205 BetaPlate liquid scintillation counter.
(§2) Analysis: The data from the scintillation counter was used to calculate either the % inhibition compared to control binding (when only a single concentration of test compound was evaluated) or a Ki value (when a range of concentrations was tested). Percent inhibition was calculated as: [(total dpm−test compound dpm)/(total dpm-nonspecific dpm)]*100. Kd and Ki values were calculated using GraphPad PRISM data analysis program.

In the next test the target is T2, mu opioid receptor (Rattus norvegicus, UniProt P33535).
T2 construct: the forebrains were homogenized in Tris buffer in a Teflon®-glass homogenizer; from tissue; host or cells: forebrain of male Wistar rats, particulate membrane preparation
T2 sequence (P33535 whole entry): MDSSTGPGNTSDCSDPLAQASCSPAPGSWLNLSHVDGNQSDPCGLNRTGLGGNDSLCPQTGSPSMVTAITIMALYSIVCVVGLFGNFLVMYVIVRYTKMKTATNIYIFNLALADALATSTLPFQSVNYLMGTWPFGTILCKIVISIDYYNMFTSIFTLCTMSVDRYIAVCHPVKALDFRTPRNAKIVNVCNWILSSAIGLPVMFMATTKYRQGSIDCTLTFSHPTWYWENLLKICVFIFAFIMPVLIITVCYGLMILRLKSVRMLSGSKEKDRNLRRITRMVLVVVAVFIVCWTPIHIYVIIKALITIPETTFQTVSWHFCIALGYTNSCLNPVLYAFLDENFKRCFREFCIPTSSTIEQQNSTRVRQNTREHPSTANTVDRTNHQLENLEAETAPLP
Nature of the test: Rat brain mu opioid receptor binding assay. On the procedure:
as §1, with “mu” for “delta”, “ligand, ˜0.8” for “ligand ˜4”, “[^3H]DAMGO,” for “[^3H]DPDPE or 0.25 nM [^3H]naltrindole”, “total assay” for “total”, “2×40” for “2×50”, “quantifed” for “quantified”
as §2

The target of test [2] is T3, delta opioid receptor (Mus musculus, UniProt P32300).
T3 construct: NG108-15 cell membranes were purchased from Applied Cell Sciences (Rockville, Md.); host or cells: NG108-15 cell membranes (purchased)
T3 sequence (P32300 whole entry): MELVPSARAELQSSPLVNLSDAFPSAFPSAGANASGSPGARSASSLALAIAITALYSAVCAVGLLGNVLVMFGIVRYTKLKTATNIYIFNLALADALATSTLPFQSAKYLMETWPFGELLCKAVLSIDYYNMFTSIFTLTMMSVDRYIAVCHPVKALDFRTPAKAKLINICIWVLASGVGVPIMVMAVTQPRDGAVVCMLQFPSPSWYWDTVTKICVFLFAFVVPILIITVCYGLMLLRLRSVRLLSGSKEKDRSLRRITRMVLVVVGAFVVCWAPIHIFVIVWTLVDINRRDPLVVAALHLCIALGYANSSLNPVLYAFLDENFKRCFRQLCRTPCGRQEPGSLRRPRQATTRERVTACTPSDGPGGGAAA
Nature of the test: [35S]GTPγS binding assay in NG108-15 cell membranes (delta opioid functional assay). It is filed as biochemical. To be noted: for inhibition at 10 µM: read-out: GTPγS δ-opioid receptor % Inh @10 μM, 10 μM. Background: GTPγS is a poorly hydrolysed GTP analogue; its binding reports G protein activation.

Test [3] has as its target T4, mu opioid receptor (CHO-hMOR cell membranes) (Homo sapiens, UniProt P35372).
T4 construct: host or cells: CHO cells (membranes purchased)
The test can be described thus: [35S]GTPγS binding assay in CHO-hMOR cell membranes (mu opioid functional assay). Type of test: biochemical.

Test [4] has as its target T3, delta opioid receptor. Nature of the test: [35S]GTPγS binding assay in NG108-15 cell membranes (delta opioid functional assay). It is filed as biochemical. The conditions noted are these: for GTPγS δ-Rel Efficacy @200 nM: 200 nM compound, relative to calculated max of SNC80 dose response. On the procedure:
Methods: NG108-15 cell membranes were purchased from Applied Cell Sciences (Rockville, Md.). 5 mg/mL of membrane protein was suspended in 10 mM TRIS-HCl pH 7.2, 2 mM EDTA, 10% sucrose. Membranes were maintained at 4-8° C. A 1 mL volume of membranes was added into 10 mL cold binding assay buffer. The assay buffer contained 50 mM Tris, pH 7.6, 5 mM MgCl2, 100 mM NaCl, 1 mM DTT and 1 mM EGTA. The membrane suspension was homogenized twice with a Polytron, and centrifuged at 3000 rpm for 10 min. The supernatant was then centrifuged at 18,000 rpm for 20 min. Ten mL assay buffer was added into the pellet containing tube. The pellet and buffer were mixed with a Polytron.
Incubation procedure: The pellet membranes (75 μg/mL) were preincubated with SPA (10 mg/mL) at 25° C. for 45 min in the assay buffer. […] 200 nM of receptor agonists was used to stimulate [^35S]-GTPγS binding. The basal binding was tested in the absence of agonists and non-specific binding was tested in the presence of 10 μM unlabeled GTPγS.
Data % of Basal=(stimulated−non specific)*100/(basal−non specific). Relative Efficacy of a compound at 200 nM=(% of Basal of test compound at 200 nM)/(Calculated Max of SNC80 dose response. Curve in prism).

Test [5] has as its target T3, delta opioid receptor. The test can be described thus: NG108-15, 24-well delta opioid receptor binding assay. To be noted: NG108-15 cell membranes, ~0.2 nM [3H]Naltrindole; read-out: δ-binding NG108 cell membrane Ki. On the procedure: Methods: NG108-15 cell membranes were purchased from Applied Cell Sciences (Rockville, Md.). 5 mg/mL of membrane protein was suspended in 10 mM TRIS-HCl pH 7.2, 2 mM EDTA, 10% sucrose. With several brief pulses from a Polytron homogenizer, each vial was homogenized in 5 mls of 50 mM Tris Buffer, pH 7.4. The homogenate was diluted in 50 mM Tris Buffer containing 5 mM MgCl2 to 330 ug/ml in the working solution for a final concentration of 133 ug/well. This particulate preparation was used for the 24-well delta opioid binding assay.
Following incubation with the delta selective ligand ˜0.2 nM [^3H]Naltrindole at 25° C. for 2.5 h in a 24-well plate with total volume of 1 mL, the plate contents were filtered through a UniFilter24, GF/B. This plate was presoaked in 0.3% PEI and filtered through a 24-well Harvester. The UniFilter24 was rinsed three times with 2 mL of 10 mM HEPES (pH 7.4), and dried in an oven at 37° C. for 1.5 hours. To each well, was added 150 μL of Scint0 (PerkinElmer, Cat#6013611). The plates were then read on a TopCount.
Analysis: The data from the scintillation counter were used to calculate either the % inhibition compared to control binding (when only a single concentration of test compound was evaluated) or a Ki value (when a range of concentrations was tested). Non-specific binding (N.S.—1 mM Naloxone) is used as the negative control, while the Total Binding (T.B.—Membrane and ligand only) is used as the positive control. If one concentration is screened, the % inhibition is calculated as (cpms of total binding minus cpms of compound) divided by (cpms of T.B. minus cpms of N.S). The triplicate % Inhibitions are averaged and reported. If multiple concentrations are generated, the values are analyzed using the one-site binding non-linear regression program in Prism to determine Ki values. The bottom and top values are globally shared. The triplicate Kis are then averaged and reported.

Setting [6] is: rat forebrain membranes, 0.25 nM [3H]naltrindole, read-out: δ-binding (Naltrindole ligand) Ki.
[7] abbreviates: rat forebrain membranes, ~0.8 nM [3H]DAMGO, read-out: μ-binding Ki.
The mark [8] stands for this setting: read-out: GTPγS δ-opioid receptor EC50.

We go through 14 compounds from patent US8394809B2, “Phenoxy-substituted pyrimidines as opioid receptor modulators” (priority 2009, dated 2013).

pEC50, pKi: −log10 of the molar value. Several values for one entry are separate records, joined by “and”; a condition that tells them apart may be missing. Identical values can stand only once. Like-named read-outs stand apart in the source and are kept apart here.

T1 sequence (P33533 whole entry): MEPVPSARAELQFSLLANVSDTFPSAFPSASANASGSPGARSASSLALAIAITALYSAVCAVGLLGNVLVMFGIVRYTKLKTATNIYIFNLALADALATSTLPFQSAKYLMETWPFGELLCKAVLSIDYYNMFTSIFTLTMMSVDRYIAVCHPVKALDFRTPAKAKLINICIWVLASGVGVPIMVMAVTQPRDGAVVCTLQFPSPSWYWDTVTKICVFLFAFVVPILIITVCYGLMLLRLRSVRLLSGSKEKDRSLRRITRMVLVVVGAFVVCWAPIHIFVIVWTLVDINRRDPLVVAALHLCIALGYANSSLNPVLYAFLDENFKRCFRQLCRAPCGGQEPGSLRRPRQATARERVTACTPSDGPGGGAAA
T4 sequence (P35372 whole entry): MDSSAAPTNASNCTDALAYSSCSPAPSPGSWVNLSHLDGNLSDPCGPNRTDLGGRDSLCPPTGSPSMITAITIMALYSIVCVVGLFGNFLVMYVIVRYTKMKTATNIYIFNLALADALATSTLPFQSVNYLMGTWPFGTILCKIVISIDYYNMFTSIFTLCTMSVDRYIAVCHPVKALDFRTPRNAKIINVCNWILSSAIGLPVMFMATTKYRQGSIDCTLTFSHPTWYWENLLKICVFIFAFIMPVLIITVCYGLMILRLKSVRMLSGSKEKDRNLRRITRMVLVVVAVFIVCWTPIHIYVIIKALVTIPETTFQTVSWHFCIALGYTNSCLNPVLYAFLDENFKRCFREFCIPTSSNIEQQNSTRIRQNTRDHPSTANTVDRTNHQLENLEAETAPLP

As for `COc1ccc(Oc2ncc(NCC3CCCN3)c(Oc3ccc(OC)cc3)n2)cc1` (racemic) [Cpd 6], the values for the pKi at delta opioid receptor [1] (setting [6]) and at mu opioid receptor (setting [7]) were 7.36 and 5.74, respectively. Besides, the “GTPγS δ-opioid receptor % Inh @10 μM” value on delta opioid receptor [2] is 12.502%.

Regarding `COc1ccc(Oc2ncc(NC[C@@H]3CCCN3)c(Oc3ccc(OC)cc3)n2)cc1` [Cpd 1, [2,4-Bis-(4-methoxyphenoxy)pyrimidin-5-yl]pyrrolidin-2-(S)-ylmethylamine], the pKi on delta opioid receptor [1] is 8.23; on mu opioid receptor, 5.41. In test [3] (CHO-hMOR cell membranes, read-out: GTPγS μ-opioid receptor EC50), the pEC50 was 4.07. Further, the inhibition at 10 µM in test [3] (read-out: GTPγS μ-opioid receptor % Inh @10 μM) is 19.5%.

On to `COc1ccc(Oc2ncc(NC3CCCNC3)c(Oc3ccc(OC)cc3)n2)cc1` (stereo not shown) [Cpd 2], for which the pKi was 8.12 on delta opioid receptor [1] and 5.61 on mu opioid receptor. The negative logarithm of the EC50 (pEC50) on delta opioid receptor [4] (setting [8]) was 6.08. Further, the inhibition at 10 µM on delta opioid receptor [2] came to 8.16%.

For `COc1ccc(Oc2ncc(NC3CCCC(N)C3)c(Oc3ccc(OC)cc3)n2)cc1` (stereo not shown) [Cpd 3], the pKi at delta opioid receptor [1] (setting [6]) was 7.79. Moreover, the negative logarithm of the Ki (pKi) on mu opioid receptor (setting [7]) is 5.78. On delta opioid receptor [4], the “GTPγS δ-opioid receptor Rel Efficacy” value is reported as 1.106. For the same compound, on delta opioid receptor [4] (GTPγS δ-opioid receptor EC50), the pEC50 is 6.25 and 7.04 and 6.69. In addition, at delta opioid receptor [2], the “GTPγS δ-opioid receptor % Inh @10 μM” value amounted to 19.733% and the inhibition at 10 µM stood at 12.8%.

For the compound `COc1ccc(Oc2nc(C#Cc3ccccc3)ncc2NC[C@@H]2CCCN2)cc1` [Cpd 4, [4-(4-Methoxy-phenoxy)-2-phenylethynyl-pyrimidin-5-yl]-pyrrolidin-2-(S)-ylmethyl-amine], the figures for the pKi on delta opioid receptor [1] (setting [6]) and on mu opioid receptor (setting [7]) were 7.79 and 5.35, respectively. The same compound gave a negative-log EC50 (pEC50) on delta opioid receptor [4] (GTPγS δ-opioid receptor EC50) of 5.99. Also, the inhibition at 10 µM on delta opioid receptor [2] is 8.94%.

For the compound `CCN(CC)C(=O)c1ccc(Oc2ncc(NC[C@@H]3CCCN3)c(Oc3ccc(OC)cc3)n2)cc1` [Cpd 5, N,N-Diethyl-4-{4-(4-methoxy-phenoxy)-5-[(pyrrolidin-2-(S)-ylmethyl)-amino]pyrimidin-2-yloxy}-benzamide], the pKi on delta opioid receptor [1] and on mu opioid receptor was 7.74 throughout. Also, on delta opioid receptor [4] (setting [8]), the pEC50 was 5.58. In addition, at delta opioid receptor [2], the inhibition at 10 µM was found to be 26.4%.

Take `COc1ccc(Oc2ncc(NCC3CCCN3)c(Oc3ccc(OC)cc3)n2)cc1` (stereo not shown) [Cpd 7]: the pKi at delta opioid receptor [1] (setting [6]) is 7.16; at mu opioid receptor (setting [7]) it was 5.55. Besides, at delta opioid receptor [4] (setting [8]), the pEC50 is 6.66. In addition, the “GTPγS δ-opioid receptor % Inh @10 μM” value on delta opioid receptor [2] is 20.645%.

As to `COc1ccc(Oc2nc(Oc3cccnc3)ncc2NC[C@@H]2CCCN2)cc1` [Cpd 45], the pKi at delta opioid receptor [5] was 8.84. Also, the “GTPγS δ-opioid receptor Rel Efficacy” value at delta opioid receptor [4] worked out at 1.178. For the same compound, the pEC50 at delta opioid receptor [4] (setting [8]) was 6.13.

Regarding `COc1ccc(Oc2nc(Sc3cccc(F)c3)ncc2NC[C@@H]2CCCN2)cc1` [Cpd 47], the pKi at delta opioid receptor [5] was 9.13. At delta opioid receptor [4], the “GTPγS δ-opioid receptor Rel Efficacy” value stood at 1.079 and the “GTPγS δ-Rel Efficacy @200 nM” value is recorded as 0.481. On delta opioid receptor [4] (setting [8]), the pEC50 was 6.71.

For the compound `COc1ccc(Oc2nc(Oc3cccc(OC)c3)ncc2NC[C@@H]2CCCN2)cc1` [Cpd 52], on delta opioid receptor [4], the “GTPγS δ-opioid receptor Rel Efficacy” value is recorded as 0.935 and the “GTPγS δ-Rel Efficacy @200 nM” value is listed as 0.624. The same compound showed a pEC50 at delta opioid receptor [4] (GTPγS δ-opioid receptor EC50) of 7.29.

As to `COc1ccc(Oc2nc(Oc3cccc(C#N)c3)ncc2NC[C@@H]2CCCN2)cc1` [Cpd 53], at delta opioid receptor [4], the “GTPγS δ-opioid receptor Rel Efficacy” value is reported as 1.033 and the “GTPγS δ-Rel Efficacy @200 nM” value is 0.705. At delta opioid receptor [4] (setting [8]), the pEC50 was 7.28.

With `COc1ccc(Oc2nc(Oc3cc(F)cc(F)c3)ncc2NC[C@@H]2CCCN2)cc1` [Cpd 54], the “GTPγS δ-Rel Efficacy @200 nM” value at delta opioid receptor [4] is on record as 0.066.

Regarding “N-{2-[2,4-Bis-(4-methoxy-phenoxy)-pyrimidin-5-ylamino]ethyl}-guanidine [Cpd 44]”, on delta opioid receptor [4] (setting [8]), the negative logarithm of the EC50 (pEC50) is 5.95. For the same compound, the “GTPγS δ-opioid receptor % Inh @10 μM” value on delta opioid receptor [2] came to 15.636%.

With “[2-(3-Fluoro-phenoxy)-4-(4-methoxy-phenoxy)-pyrimidin-5-yl]-pyrrolidin-2-(S)-ylmethyl-amine [Cpd 46]”, at delta opioid receptor [5], the pKi was 9.54. For the same compound, at delta opioid receptor [4], the “GTPγS δ-opioid receptor Rel Efficacy” value is on record as 0.983 and the “GTPγS δ-Rel Efficacy @200 nM” value was 0.770. Besides, the pEC50 on delta opioid receptor [4] (setting [8]) is 7.55.

The term pKi denotes −log10 of the Ki, conventionally taken in molar units. In general, pEC50 refers to the EC50 on a negative log10 scale, so that one unit is a factor of ten.
